Our source for the IC50 values is ChEMBL document CHEMBL1133574, “alpha-Substituted N-(sulfonamido)alkyl-beta-aminotetralins: potent and selective neuropeptide Y Y5 receptor antagonists” (J Med Chem, 2000).

The test addresses T1, Neuropeptide Y receptor type 5 (Homo sapiens, UniProt Q15761).
T1 sequence (Q15761 whole entry): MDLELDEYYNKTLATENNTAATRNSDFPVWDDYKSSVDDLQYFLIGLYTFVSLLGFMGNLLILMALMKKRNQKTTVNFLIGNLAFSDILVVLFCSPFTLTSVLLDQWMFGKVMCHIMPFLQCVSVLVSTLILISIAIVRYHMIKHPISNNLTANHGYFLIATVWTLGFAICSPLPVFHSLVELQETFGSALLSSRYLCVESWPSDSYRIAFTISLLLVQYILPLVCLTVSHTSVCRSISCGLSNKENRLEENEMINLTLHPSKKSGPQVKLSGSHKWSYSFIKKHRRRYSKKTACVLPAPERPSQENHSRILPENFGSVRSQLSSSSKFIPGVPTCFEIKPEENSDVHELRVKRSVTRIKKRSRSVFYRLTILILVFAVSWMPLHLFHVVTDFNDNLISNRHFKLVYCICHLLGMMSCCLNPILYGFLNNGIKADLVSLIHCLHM
Put plainly: Inhibition of [125I]-PYY binding to recombinant NPY Y5 receptor on HEK293 cell membranes. The format is cell-based.
Turning to `O=S(=O)(NC[C@H]1CC[C@H](CNC2CCc3cc(O)ccc3C2Cc2cccnc2)CC1)c1ccccc1F` (some centres not stated), the IC50 came out at 7 nM.

For the compound `N[C@@H](CCCCNS(=O)(=O)c1ccccc1F)C(=O)NC1CCc2cc(F)ccc2C1Cc1cccnc1` (some centres not stated), the IC50 was determined as 22 nM.

As to `COc1ccc2c(c1)CCC(NC[C@H]1CC[C@H](CNS(=O)(=O)c3ccc4ccccc4c3)CC1)C2Cc1ccccc1` (some centres not stated), the IC50 is 443 nM.

Regarding `COc1ccc2c(c1)CCC(NC(=O)[C@H]1CC[C@H](CNS(=O)(=O)c3ccccc3)CC1)C2Cc1cccnc1` (some centres not stated), the IC50 is 11 nM.

Consider `COc1ccc2c(c1)CCC(NC[C@H]1CC[C@H](CNS(=O)(=O)c3ccc4ccccc4c3)CC1)C2Cc1cccnc1` (some centres not stated), for which the IC50 was determined as 337 nM.

In the case of `O=C(CN1CC[C@H](NS(=O)(=O)c2ccccc2)C1)NC1CCc2cc(F)ccc2C1Cc1cccnc1` (some centres not stated), the IC50 was 5 nM.

On to `COc1ccc2c(c1)CCC(NC[C@H]1CC[C@H](CNS(=O)(=O)c3ccccc3)CC1)C2Cc1cccnc1` (some centres not stated), for which the IC50 worked out at 10 nM.

As to `O=C(NC1CCc2cc(F)ccc2C1Cc1cccnc1)[C@H]1CC[C@H](CNS(=O)(=O)c2ccccc2F)CC1` (some centres not stated), the IC50 was determined as 12 nM.

As to `COc1ccc2c(c1)CCC(NC(=O)[C@H]1CC[C@H](CNS(=O)(=O)c3ccccc3F)CC1)C2Cc1cccnc1` (some centres not stated), the IC50 was found to be 11 nM.

Take `C=CCC1c2ccc(O)cc2CCC1NC[C@H]1CC[C@H](CNS(=O)(=O)c2ccccc2)CC1` (some centres not stated): the IC50 came out at 5 nM.

Consider `COc1ccc2c(c1)CCC(NC[C@H]1CC[C@H](CNS(=O)(=O)c3ccccc3F)CC1)C2Cc1cccnc1` (some centres not stated), for which the IC50 came out at 23 nM.

For `O=C(NC1CCc2cc(F)ccc2C1Cc1cccnc1)[C@H]1CC[C@H](CNS(=O)(=O)c2ccccc2)CC1` (some centres not stated), the IC50 was 40 nM.

With `O=C(CN1CC[C@@H](NS(=O)(=O)c2ccccc2)C1)NC1CCc2cc(F)ccc2C1Cc1cccnc1` (some centres not stated), the IC50 is 27 nM.

For the compound `COc1ccc2c(c1)CCC(NCCCCCCNS(=O)(=O)c1ccccc1)C2Cc1cccnc1` (configuration not stated), the IC50 is 53 nM.

In the case of `O=S(=O)(NC[C@H]1CC[C@H](CNC2CCc3cc(F)ccc3C2Cc2cccnc2)CC1)c1ccccc1` (some centres not stated), the IC50 was determined as 27 nM.

As for `O=S(=O)(NC[C@H]1CC[C@H](CNC2CCc3cc(F)ccc3C2Cc2cccnc2)CC1)c1ccccc1F` (some centres not stated), the IC50 turned out to be 19 nM.

Take `O=C(CN1CCC(NS(=O)(=O)c2ccccc2)CC1)NC1CCc2cc(F)ccc2C1Cc1cccnc1` (configuration not stated): the IC50 turned out to be 10 nM.

`COc1ccc2c(c1)CCC(NCCc1ccc(OC)c(OC)c1)C2Cc1ccccc1` (configuration not stated): the 50% inhibitory concentration (IC50) came to 900 nM.

Regarding `O=C(CN1CCC(NS(=O)(=O)c2ccccc2)C1)NC1CCc2cc(F)ccc2C1Cc1cccnc1` (configuration not stated), the IC50 amounted to 11 nM.

Turning to `N[C@@H](CCCCNS(=O)(=O)c1ccccc1F)CNC1CCc2cc(O)ccc2C1Cc1cccnc1` (some centres not stated), the IC50 is 1 nM.

Turning to `C=CCC1c2ccc(F)cc2CCC1NC[C@H]1CC[C@H](CNS(=O)(=O)c2ccccc2)CC1` (some centres not stated), the IC50 was 21 nM.

As for `C=CCC1c2ccc(F)cc2CCC1NC(=O)[C@H]1CC[C@H](CNS(=O)(=O)c2ccccc2)CC1` (some centres not stated), the half-maximal inhibitory concentration (IC50) is 75 nM.
